Test results: US10583135B2, “Compositions for treating CMT and related disorders” (Pharnext, priority 2009, dated 2020)

tested on: Myelin Basic Protein (MBP) expression; assay: MBP expression in PMP22 TG sensory neuron/Schwann cell co-cultures (in vitro model of CMT1A); type: cell-based, rat; conditions: day 10 (=17 days of culture), doses 1 and 6, in presence of ascorbic acid, compared to control
Description: A model of co-culture was used as an in vitro model of CMT1A. This model of myelination consists in co-culturing sensory neurons and Schwann cells from male PMP22 Transgenic (TG) dissociated Dorsal Root Ganglia (DRG).
The aim of this study is to assess the effect of 3 test compounds (+/− baclofen, naltrexone and sorbitol) and Mix7 (a mixture of these 3 drugs) on myelination process. The effect of the 3 test compounds, and their mixture on myelination, are assessed by evaluating Myelin Basic Protein (MBP) expression in presence of ascorbic acid.
Each embryo is dispatched on numerating petri dish (35 mm of diameter). The head of embryo is cut, placed on 1.5 ml tube DNAase free; the ADN is extracted with the Extract-N-Amp Tissue Kit (Sigma Aldrich). The genotyping (Male (M) and female (F), wild type and PMP22 transgenic) is performed with the kit Fast SYBR Green Master Mix (Applied Biosystem). This genotyping is performed in parallel of the dissection of dorsal root ganglia (DRG), so that at the end of the dissection, only one type of culture (DRG from transgenic male) is done. DRG of each embryo is collected, placed in ice-cold medium of Leibovitz (L15, Invitrogen). At the end of the dissection, DRG of TGM are pooled and dissociated by trypsinization (trypsin EDTA, 0.05%; Invitrogen) for 20 min at 37° C. The reaction is stopped by addition of DMEM containing 10% of fetal bovine serum (FBS) in the presence of DNAase I (Roche). The suspension is triturated with a 10 ml pipette. Cells are then centrifuged at 350×g for 10 min at room temperature. […] Viable cells are counted in a Neubauer cytometer using the trypan blue exclusion test (Sigma) and seeded on the basis of 10 000 cells per well in 96 well-plates (Greiner) treated with poly-L-lysine. […]
Three separate and independent cultures of DRG (from TG embryos male rats) are done. These conditions are assessed in presence of ascorbic acid, 6 wells per condition. The solution ready to use of all test compounds are extemporaneously prepared from a stock solution, stored at −20° C. […]

NCC(CC(=O)O)c1ccc(Cl)cc1 (racemic) [(RS)-baclofen] was tested. Which MBP expression did it give?
The MBP expression was “no substantial effect”.

Which MBP expression does the source give for OC[C@@H](O)[C@@H](O)[C@H](O)[C@@H](O)CO [D-sorbitol] here?
The MBP expression was “no substantial effect”.

How did the MBP expression turn out when O=C1CC[C@@]2(O)[C@H]3Cc4ccc(O)c5c4[C@@]2(CCN3CC2CC2)[C@H]1O5 [naltrexone] was run?
The MBP expression was “no substantial effect”.
